Experimental findings from a compilation of properties of binary mixtures (doi:10.1039/c7cp04078d) are described below.

SMILES strings stand for the structures.

This data set is described as follows: xn = mol fraction of the nth substance listed. The note with it: 303.15 K, 100 kPa.

On to `CC(=O)[O-].CCCC[N+](CCCC)(CCCC)CCCC` + CCCCN, for which the viscosity reads like this: (x2 = 0) 680 mPa·s; (x2 = 0.1) 390 mPa·s; (x2 = 0.33) 78 mPa·s; (x2 = 0.5) 28 mPa·s; (x2 = 0.67) 16 mPa·s; (x2 = 0.8) 11 mPa·s. The compound also came in with a viscosity (x2 = 0.9) of 9 mPa·s.
In the case of `CC(=O)[O-].CCCC[N+](CCCC)(CCCC)CCCC` + CC(=O)O, the viscosity is, setting by setting: (x2 = 0) 680 mPa·s; (x2 = 0.1) 460 mPa·s; (x2 = 0.2) 297 mPa·s; (x2 = 0.33) 169 mPa·s; (x2 = 0.5) 83 mPa·s; (x2 = 0.67) 41 mPa·s. The viscosity by setting is: (x2 = 0.8) 25 mPa·s; (x2 = 0.9) 19 mPa·s.

The viscosity is the internal friction of a fluid under shear. A lower viscosity goes with easy flow.
